# Measurements as given in patent US20170334919A1, “2-((4-AMINO-3-(3-FLUORO-5-HYDROXYPHENYL)-1H-PYRAZOLO[3,4-D]PYRIMIDIN-1 -YL)METHYL)-3-(2-(TRIFLUORO-MET HYL)BENZYL)QUINAZOLIN-4(3H)-ONE DERIVATIVES AND THEIR USE AS PHOSPHOINOSITIDE 3-KINASE INHIBITORS” (RESPIVERT LTD., priority 2013, published 2017).
# Where two headings read alike, the source gives them in different places.
# Key:
# PBMCs = assay: Cytostim-induced cytokine production in PBMCs; format: cell-based; settings: Homo sapiens, PBMC
# Description: As a means of assessing PI3Kδ-dependent cell function, cytostim-induced IL-4, IL-5, IL-13 and IFNγ production in PBMCs were evaluated by Luminex multiplex assay. All healthy volunteers were recruited by Quintiles Limited (London, UK), and blood samples were delivered to Respivert Ltd. This study was approved by the local Ethics Committee, and all subjects gave written informed consent.
# PBMC suspensions (200 μL; 2×10^6 cells/mL) were added to a 96-well plate. Cells were treated with either test compounds in neat DMSO or DMSO as vehicle (2 μL) and incubated at RT for 1 hr. Cytostim (Miltentyi Biotec, Surrey, UK) was introduced at a ratio of 1:50 and the cells were incubated for 20 hr (37° C.; 5% CO2). Plates were spun at 500×g for 5 min and the supernatant collected. A high sensitivity cytokine magnetic bead kit (#HSCYTMAG-60SK, Millipore, Watford, UK) was used to measure the four analytes (IL-4, IL-5, IL-13 and IFNγ) by Luminex as follows: The magnetic antibody beads were multiplexed and incubated in a 96-well plate with standard, media only or sample (50 μL) overnight with shaking at 4° C. After washing twice with Millipore wash buffer provided in the kit using a magnetic plate washer, the beads were incubated for 1 hr with detection antibody (50 μL) with shaking at RT. A streptavidin-phycoerythrin solution provided in the kit was added for 30 min with shaking at RT. After washing, the beads were re-suspended in sheath fluid (150 μL) and analysed immediately. The Luminex system was set up to count 50 beads and the amount of each analyte in the supernatant was calculated against a standard curve. The IC50 values were determined from concentration-inhibition curves using XL-Fit (IDBS, Guildford, UK)
# THP1 cells = assay: Chemotaxis to MCP1; format: cell-based; settings: Homo sapiens, THP-1; read-out: REC50, THP1 cell chemotaxis to MCP1
# Description: As a means of assessing PI3K γ dependent cell function, THP1 cell chemotaxis to MCP-1 was evaluated using a 48 well-chemotaxis chamber. THP1 cells from a human leukemic monocyte lymphoma cell line, (purchased from ATCC Manassas, Va.) were maintained in RPMI 1640 (Invitrogen Ltd., Paisley, UK) with 10% FCS at 37° C. Cells were re-suspended in 0.5% BSA/RPM11640 (2×10^6 cells/mL) and incubated for 10 min at 37° C., 5% CO2. Cell suspension aliquots (500 μL) were then treated either with compounds in neat DMSO or with DMSO as vehicle (2.5 μL) for 1hr (37° C., 5% CO2).
# MCP1 (50 nM) was prepared in 0.5% BSA/RPM11640. MCP1 solution (50 μL) was added to each well in the bottom plate of a 48-well chemotaxis chamber (AP48, NeuroProbe Inc., Gaithersburg, Md.). A polycarbonate membrane (8 μm) was mounted on the bottom chamber, and then the top plate was mounted on the bottom chamber and filter membrane. […]
# A solution of MTT (50 μL) in 10% FCS phenol red-free RPM11640 was added to each well, and the plate was incubated for 2 hr (37° C., 5% CO2). Neat DMSO (100 μL) was added to each well to extract formazan formed from MTT and the plates were shaken lightly for 1 hr prior to measuring the absorbance at 595 nm (Varioskan® Flash, Thermo-Fisher Scientific). […] Relative EC50 values were determined from concentration-inhibition curves using XL-Fit (idbs, Guildford, UK).
# d-U937 cells = assay: MTT assay, cell viability; format: cell-based, human; settings: 10 μg/mL
# Description: PMA-differentiated U937 cells were pre-incubated with test compound (10 μg/mL) or vehicle for 4 hr in 5% FCS or 10% FCS for 24 hr. The supernatant was replaced with new media (200 μL) and MTT stock solution (10 μL, 5 mg/mL) was added to each well. After 1 hr incubation, the media were removed, 200 μL of DMSO was added to each well and the plates were shaken lightly for 1 hr prior to reading the absorbance at 550 nm. The percentage loss of cell viability was calculated for each well relative to vehicle (0.5% DMSO)-treatment.
# IFNγ-primed U937 cells = assay: Superoxide anion production assay (zymosan-induced ROS); format: cell-based; settings: Homo sapiens, U-937; read-out: REC50, Zymosan-induced ROS production in IFNγ-primed U937 cells
# Description: As a means of assessing PI3Kδ dependent cell function, superoxide anion production in IFNγ-primed U937 cells was evaluated by a chemiluminescence assay. The U937 cells (purchased from ATCC, Manassas, Va.) were maintained in RPMI 1640 (Invitrogen Ltd., Paisley, UK) with 10% FCS at 37° C. The cells were suspended at a density of 10^7cells/mL in 40 mL 10% FCS RPMI 1640, and treated with 20 μL of 100 μg/mL IFNγ solution (final concentration: 50 ng/mL), and incubated at 37° C., 5% CO2 for 4 days.
# IFNγ-primed U937 cells were seeded at 0.2×10^6 cells/well in a 96-well plate, and pre-incubated with test compounds for 2 hr in starvation media (0.5% FCS RPMI1640-phenol red free). Zymosan A (10 mg) from Saccharomyses cerevisiae (ex Sigma-Aldlich) was resuspended in 1 mL of 150 mM NaCl and boiled at 100° C. for 15 min. After boiling, Zymosan particles were washed with 1 mL of PBS twice, and incubated with 0.5 mL of BioParticles™ opsonized reagents (Life technologies) for 60 min at 37° C. […] Chemiluminescence indicating released superoxide anion was measured every 15 min up to 60 min by luminometric measurement (Varioskan® Flash, Thermo-Fisher Scientific).
# The data at 60 min after incubation was used for analysis. […] The relative EC50 values were calculated from the concentration-response curves generated by the serial dilutions of the test compounds using XL-Fit (idbs, Guildford, UK).
# [1] = tested on: cigarette smoke-induced cell accumulation and biomarkers in murine BALF; assay: Cigarette smoke model; format: in vivo, A/J mice
# Description: A/J mice (males, 5 weeks old) were exposed to cigarette smoke (4% cigarette smoke, diluted with compressed air) for 30 min/day for 11 days using a Tobacco Smoke Inhalation Experiment System for small animals (Model SIS-CS; Sibata Scientific Technology, Tokyo, Japan). Test substances were administered once daily for 3 days after the final cigarette smoke exposure (intra-nasal dose comprising 35 μL of solution in 50% DMSO/isotonic saline).
# At 12 hr after administration of the last dose, animals were anesthetized, the trachea was cannulated and bronchial alveolar lavage (BAL) was carried out by the instillation into and then withdawal from the lungs, of PBS (100 mL/kg). Total cell numbers in the BALF samples were measured using a haemocytometer under a phase-contrast microscope. The proportions of alveolar macrophages and neutrophils were determined by FACS analysis using anti-mouse MOMA2-FITC (macrophage) or anti-mouse 7/4 (neutrophil).
# Cells were suspended in PBS and were incubated with anti-MOMA2-FITC (2 μg/mL, Catalogue no SM065F, Acris Antibodies GmbH, Herford, Germany) or anti-7/4-FITC (2 μg/mL, Catalogue no CL050F, Acris Antibodies GmbH, Herford, Germany) for 30 min at 30° C., and also counterstained with propidium iodide (2 μg/mL) to allow exclusion of necrotic cells. The cells were washed with PBS, and transferred to FACS tubes. Samples was set in a flow cytometer (ALTRA II; Beckman Coulter Japan, Tokyo, Japan), and a single-parameter FL2 [PMT2] (FITC) histogram with log x-axis was plotted to illustrate relative intensity of FITC.
# Data files are stored for subsequent analysis using Kaluza analysis software (ver. 1.2) to calculate the proportion of each cell type. The levels of CXCL1(KC), MCP1, TNFα, IL-17 or osteopontin in BALF were determined using Quentikine® mouse KC, MCP1, TNFα, IL-17 or osteopontin ELISA kit (R&D systems, Inc., Minneapolis, Minn., USA). The presence of malondialdehyde was measured using OxiSelect® TBARS Assay Kit (MDA Quantitation; Cell Biolabs Inc, San Diego, Calif., USA).
structure (smiles),measurement,setting,value
"Nc1ncnc2c1c(-c1cc(O)cc(F)c1)nn2Cc1nc2cccc(C#CCOCCOCCO)c2c(=O)n1Cc1ccccc1C(F)(F)F [Compound (Ia), 2-((4-Amino-3-(3-fluoro-5-hydroxyphenyl)-1H-pyrazolo[3,4-d]pyrimidin-1-yl)methyl)-5-(3-(2-(2-hydroxyethoxy)ethoxy)prop-1-yn-1-yl)-3-(2-(trifluoromethyl)benzyl)quinazolin-4(3H)-one]",IC50,"PBMCs; read-out: IC50, Cytostim-induced IFNγ in PBMCs",60.8 nM
same,IC50,"PBMCs; read-out: IC50, Cytostim-induced IL-4 in PBMCs",674 nM
same,IC50,"PBMCs; read-out: IC50, Cytostim-induced IL-5 in PBMCs",14.5 nM
same,IC50,"PBMCs; read-out: IC50, Cytostim-induced IL-13 in PBMCs",6.1 nM
same,EC50,THP1 cells,> 14200 nM
same,Cell Viability MTT Assay in d-U937 cells at 4 hr,d-U937 cells; 4 hr,−ve (−ve indicates a value of <30% inhibition at 10 μg/mL)
same,Cell Viability MTT Assay in d-U937 cells at 24 hr,d-U937 cells; 24 hr,−ve (−ve indicates a value of <30% inhibition at 10 μg/mL)
same,EC50,IFNγ-primed U937 cells,143 nM
"C[C@@H]1C[C@H]2[C@@H]3CCC4=CC(=O)C=C[C@]4(C)[C@@]3(F)[C@@H](O)C[C@]2(C)[C@@]1(O)C(=O)CO [dexamethasone, reference compound]",activity in the cigarette smoke model,"[1]; 0.3-10 mg/kg, p.o.",inactive
"CCC(=O)O[C@]1(C(=O)SCF)[C@H](C)C[C@H]2[C@@H]3C[C@H](F)C4=CC(=O)C=C[C@]4(C)[C@@]3(F)[C@@H](O)C[C@@]21C [fluticasone propionate, reference compound]",effect as monotherapy in the cigarette smoke model,[1]; dose used for co-administration with compound (I),lacks any significant effect as monotherapy
